Laboratory results as given in patent US7919480B2, “Polymers having covalently bound antibiotic agents” (Ethicon, Inc., priority 2007, dated 2011).

Tested on: S. aureus ATCC 6538
Test: log reduction assay (Example 4)
Assay type: cell-based
Method: Sample of ONM covalently bound to ORC (ORC-ONM-CV) from example 3 were tested for its in vitro efficacy by log reduction assay. In the log reduction assay, the test articles (squares of about 4.0 mg/piece) were challenged with about 1-2×10e4 CFU bacteria on the surface of the test articles for one hour. To facilitate the test of efficacy on surface of the test articles with covalent bound ONM, the inoculum was delivered in 10 ul/item, the small volume relative to the test articles allowed complete absorption of the inoculum by the test articles such that the inoculum localized on surfaces of the test articles. The inoculum was prepared in 20× potassium phosphate buffer, which maintained pH of the test articles close to neutral. The antimicrobial efficacy of ORC at neutral pH will be minimized, so that the log reduction would indicate the antibacterial efficacy of ONM rather than ORC. After the challenge, the test article was immersed in saline with shaking to remove survival bacteria and the survival bacteria were measured by plate count. The plate counts were conducted in trypticase soy agar and incubated at 37° C. for 24 hours.

POLYQUATERNIUM 1 [ONM control]
log reduction (log CFU of inoculum − log CFU of treated, 1 h challenge): 4.2 log | log CFU (surviving bacteria after 1 h challenge with about 1-2x10e4 CFU, neutral pH): 0.3 log CFU
